Literature values in patent publication US12448600B2, “Extraction of antimethanogenic compounds” (priority 2023, dated 2025).
Like-named read-outs stand apart in the source and are kept apart here.

What was measured:
[1] = pure form
[2] = 20° C., cell prints mmHg under a kPa head

ClC(Cl)Cl [Chloroform]
Vapor pressure [1, 2]: 212 mmHg

CI [Methyl iodide]
Vapor pressure ([1]; 20° C.): 50 kPa

CF [Methyl fluoride]
Vapor pressure ([1]; at 21° C.): 3300 at 21 °C kPa

O=[N+]([O-])OCCCO [3-NOP, 3-nitrooxypropanol]
Reduction in CH4 production (CH4 production; cows, twice daily dosing, 80 mg per kg dry matter intake, 3 hours post-administration): 29% | Reduction in methane emissions (CH4 production; single dose): < 30% | Time the reduction in methane emissions is maintained (CH4 production; single dose): 3 to 4 h

ClC=C(Cl)Cl [Trichlorethylene]
Vapor pressure ([1]; 20° C.): 7.8 kPa

FC(F)F [Fluoroform]
Vapor pressure ([1]; 20° C.): 4000 kPa

BrC(Br)Br [Bromoform]
Vapor pressure ([1]; 20° C.): 0.67 kPa

CBr [Methyl bromide]
Vapor pressure [1, 2]: 1893 mmHg

ClC(Cl)Br [Bromodichloromethane]
Vapor pressure ([1]; 20° C.): 6.6 kPa

IC(I)I [Iodoform]
Vapor pressure [1, 2]: 0.04 mmHg

BrCBr [Dibromomethane]
Vapor pressure ([1]; 20° C.): 4.7 kPa
